Patent publication US8785614B2, “Aberrantly methylated genes in pancreatic cancer” (The Johns Hopkins University, priority 2003, dated 2014)
Read-outs that look alike come from different tables or passages of the source.

How the values were obtained:
[1] = tested on: four pancreatic cancer cell lines (AsPC1, Hs766T, MiaPaCa2, Panc1)
Method: (§1) Mock-treated cells were cultured with the equivalent volume of PBS alone.
(§2) Total RNA was isolated from cultured cells using TRIZOL reagent (invitrogen, Carlsbad, Calif.) and purified using RNeasy Mini Kit (Qiagen, Valencia, Calif.). First- and second-stranded cDNA was synthesized from 10 μg of total RNA using 17-dT) primer (Genset Corp., La Jolla, Calif.) and Superscript Choice system (Invitrogen). Labeled cRNA was synthesized from the purified cDNA by in vitro transcription reaction using the BioArray High Yield RNA Transcript Labeling Kit (Enzo Diagnostics, Inc., Farmingdale, N.Y.) at 37° C. for 6 h. The cRNA was fragmented at 94° C. for 35 min. in a fragmentation buffer [40 mM Tris-acetate @ pH 8.1, 100 mM potassium acestate, and 30 mM magnesium acetate]. The fragmented cRNA was then hybridized to the Human Genome U133A chips (Affymetrix, Santa Clara, Calif.) with 18462 unique gene/EST transcripts at 45° C. for 16 h. The washing and staining procedure was performed in the Affymetrix Fluidics Station according to the manufacturer's instructions. The probes were then scanned using a laser scanner, and signal intensity for each transcript (background-subtracted and adjusted for noise) was calculated using Microarray Suite Software 5.0 (Affymetrix).
(§3) Fold change analysis of signal intensities obtained from oligonucleotide microarrays between the two treatment groups was performed using Data Mining software (Afrymetrix).
(§4) The global changes in gene expression proxies induced by 5Aza-dC in four pancreatic cancer cell lines (AsPCl, Hs766T, MiaPaCa2, and Panel) were determined using the Afrymetrix U133 oligonucleotide microarrays with 18462 probes sets (transcripts) covering over 13000 full-length sequences of known genes.

[2] = tested on: Panc1 pancreatic cancer cell line
Method: as §1, §2, §3, §4

## Nc1ncn([C@H]2C[C@H](O)[C@@H](CO)O2)c(=O)n1 [5Aza-dC, 5 aza 2′ deoxycytidine]
[1]
  changes in phenotypes during the treatment period: did not result in apparent changes in their phenotypes
[1]; ADM
  Induced by 5Aza-dC alone?: No
[1]; ANGPT1
  Induced by 5Aza-dC alone?: No
[1]; AREG
  Induced by 5Aza-dC alone?: No
[1]; ATF3
  Induced by 5Aza-dC alone?: No
[1]; BIK
  Induced by 5Aza-dC alone?: No
[1]; BIK (Table 3)
  Induced by 5Aza-dC alone?: No
[1]; BNIP3
  Induced by 5Aza-dC alone?: Yes
[1]; BST2
  Induced by 5Aza-dC alone?: Yes
[1]; CACNA1G
  Induced by 5Aza-dC alone?: Yes
[1]; CAPN5
  Induced by 5Aza-dC alone?: No
[1]; CASP5
  Induced by 5Aza-dC alone?: No
[1]; CCNA1
  Induced by 5Aza-dC alone?: No
[1]; CDC25A
  Induced by 5Aza-dC alone?: No
[1]; CDH8
  Induced by 5Aza-dC alone?: Yes
[1]; CDKN1C
  Induced by 5Aza-dC alone?: Yes
[1]; CDKN2A (p16)
  Induced by 5Aza-dC alone?: No
[1]; CGR11
  Induced by 5Aza-dC alone?: No
[1]; CHES1
  Induced by 5Aza-dC alone?: No
[1]; CHFR
  Induced by 5Aza-dC alone?: No
[1]; CLDN7
  Induced by 5Aza-dC alone?: No
[1]; CLDN15
  Induced by 5Aza-dC alone?: No
[1]; CRIP 1
  Induced by 5Aza-dC alone?: No
[1]; CRLF1
  Induced by 5Aza-dC alone?: No
[1]; CSF3
  Induced by 5Aza-dC alone?: No
[1]; Cdc42 effector protein 2
  Induced by 5Aza-dC alone?: No
[1]; DAPK2
  Induced by 5Aza-dC alone?: No
[1]; DAZL
  Induced by 5Aza-dC alone?: Yes
[1]; DEAD box RNA helicase (VASA)
  Induced by 5Aza-dC alone?: No
[1]; EDR1
  Induced by 5Aza-dC alone?: Yes
[1]; EGR4
  Induced by 5Aza-dC alone?: No
[1]; EREG
  Induced by 5Aza-dC alone?: No
[1]; GADD45B
  Induced by 5Aza-dC alone?: No
[1]; GAGE1
  Induced by 5Aza-dC alone?: Yes
[1]; GAGE2 (Table 2)
  Induced by 5Aza-dC alone?: No
[1]; GAGE2 (Table 3)
  Induced by 5Aza-dC alone?: Yes
[1]; GAGE3
  Induced by 5Aza-dC alone?: Yes
[1]; GAGE4
  Induced by 5Aza-dC alone?: Yes
[1]; GAGE6
  Induced by 5Aza-dC alone?: Yes
[1]; GAGE7B (Table 2)
  Induced by 5Aza-dC alone?: Yes
[1]; GAGE7B (Table 3)
  Induced by 5Aza-dC alone?: No
[1]; GAS1
  Induced by 5Aza-dC alone?: No
[1]; H1 historic family, member 2 (BC002649)
  Induced by 5Aza-dC alone?: No
[1]; HEP27
  Induced by 5Aza-dC alone?: No
[1]; HMOX1
  Induced by 5Aza-dC alone?: No
[1]; HPSE
  Induced by 5Aza-dC alone?: No
[1]; HSPA1A
  Induced by 5Aza-dC alone?: No
[1]; ID2
  Induced by 5Aza-dC alone?: No
[1]; ING1
  Induced by 5Aza-dC alone?: No
[1]; ITM3
  Induced by 5Aza-dC alone?: No
[1]; KLK12
  Induced by 5Aza-dC alone?: Yes
[1]; KRT17
  Induced by 5Aza-dC alone?: No
[1]; LHX2
  Induced by 5Aza-dC alone?: Yes
[1]; LIPC
  Induced by 5Aza-dC alone?: Yes
[1]; MAGE1
  Induced by 5Aza-dC alone?: Yes
[1]; MAGEC1
  Induced by 5Aza-dC alone?: No
[1]; MBD1
  Induced by 5Aza-dC alone?: No
[1]; MLH1
  Induced by 5Aza-dC alone?: No
[1]; MMP1
  Induced by 5Aza-dC alone?: No
[1]; NGFR
  Induced by 5Aza-dC alone?: Yes
[1]; NK4
  Induced by 5Aza-dC alone?: Yes
[1]; NOTCH3
  Induced by 5Aza-dC alone?: No
[1]; P-glycoprotein (mdr1)
  Induced by 5Aza-dC alone?: No
[1]; PAX6
  Induced by 5Aza-dC alone?: Yes
[1]; PIG11
  Induced by 5Aza-dC alone?: Yes
[1]; PRG1
  Induced by 5Aza-dC alone?: No
[1]; S100A2
  Induced by 5Aza-dC alone?: Yes
[1]; S100P
  Induced by 5Aza-dC alone?: No
[1]; SALL1
  Induced by 5Aza-dC alone?: Yes
[1]; SARP2
  Induced by 5Aza-dC alone?: Yes
[1]; SGCE
  Induced by 5Aza-dC alone?: No
[1]; SPANXA1
  Induced by 5Aza-dC alone?: No
[1]; SPANXC
  Induced by 5Aza-dC alone?: No
[1]; STAT3
  Induced by 5Aza-dC alone?: No
[1]; STC1
  Induced by 5Aza-dC alone?: Yes
[1]; TERT
  Induced by 5Aza-dC alone?: No
[1]; UCHL1
  Induced by 5Aza-dC alone?: Yes
[1]; UCPH
  Induced by 5Aza-dC alone?: No
[1]; ULBP2
  Induced by 5Aza-dC alone?: Yes
[1]; WISP2
  Induced by 5Aza-dC alone?: No
[1]; WIT-1
  Induced by 5Aza-dC alone?: Yes
[1]; WNT4
  Induced by 5Aza-dC alone?: Yes
[1]; XAGE-1
  Induced by 5Aza-dC alone?: Yes
[1]; activity-regulated cytoskeleton-associated protein (APC)
  Induced by 5Aza-dC alone?: No
[1]; after excluding those reactivated in HPDE
  transcripts specifically up-regulated by 5Aza-dC treatment in pancreatic cancers: 590 transcripts
[1]; aik3
  Induced by 5Aza-dC alone?: No
[1]; basic fibroblast growth factor (FGF)
  Induced by 5Aza-dC alone?: No
[1]; candidate tumor suppressor gene 21 protein (AF040708)
  Induced by 5Aza-dC alone?: No
[1]; connective tissue growth factor (M92934)
  Induced by 5Aza-dC alone?: No
[1]; cytovillin 2 (VIL2, ezrin)
  Induced by 5Aza-dC alone?: No
[1]; hemoglobin, alpha 1 (HBAI)
  Induced by 5Aza-dC alone?: Yes
[1]; in one or more pancreatic cancer cell lines but not in HPDE
  genes markedly up-regulated by 5Aza-dC treatment: 475 genes
[1]; interleukin 8
  Induced by 5Aza-dC alone?: No
[1]; junction adhesion molecule (AF154005)
  Induced by 5Aza-dC alone?: No
[1]; matrix metalloproteinase 8 (MMP3)
  Induced by 5Aza-dC alone?: No
[1]; nucleotide-binding site protein 1 (AF298547)
  Induced by 5Aza-dC alone?: No
[1]; period homolog 1 (PERI)
  Induced by 5Aza-dC alone?: Yes
[1]; prostate differentiation factor (AF003934)
  Induced by 5Aza-dC alone?: Yes
[1]; protease inhibitor 12 (neuroserpin) (SERPINU)
  Induced by 5Aza-dC alone?: No
[1]; range 116-251 transcripts
  average number of transcripts induced per cell line: ~200 transcripts
[1]; synovial sarcoma, X breakpoint 1 (BC001003)
  Induced by 5Aza-dC alone?: Yes
[1]; synovial sarcoma, X breakpoint 2 (AF257500)
  Induced by 5Aza-dC alone?: No
[1]; tissue factor pathway inhibitor-2 (L27624)
  Induced by 5Aza-dC alone?: No
[1]; transketolase-like protein (X91817)
  Induced by 5Aza-dC alone?: No
[2]; ANGPT2, Panc1
  Fold-change after 5Aza-dC treatment: 0.91 fold
[2]; BARD1, Panc1
  Fold-change after 5Aza-dC treatment: −1.01 fold
[2]; BNIP3, Panc1
  Fold-change after 5Aza-dC treatment: −1.07 fold
[2]; BST2, Panc1
  Fold-change after 5Aza-dC treatment: −1.04 fold
[2]; CACNA1G, Panc1
  Fold-change after 5Aza-dC treatment: 5.26 fold
[2]; CCNE2, Panc1
  Fold-change after 5Aza-dC treatment: 1.52 fold
[2]; CDH3, Panc1
  Fold-change after 5Aza-dC treatment: 2.31 fold
[2]; CDKN1A (p21), Panc1
  Fold-change after 5Aza-dC treatment: 1.93 fold
[2]; CDKN1C, Panc1
  Fold-change after 5Aza-dC treatment: 3.77 fold
[2]; CLDN5, Panc1
  Fold-change after 5Aza-dC treatment: 1.88 fold
[2]; CSF1, Panc1
  Fold-change after 5Aza-dC treatment: −1.91 fold
[2]; FOXE1, Panc1
  Fold-change after 5Aza-dC treatment: 1.7 fold
[2]; GAGE1, Panc1
  Fold-change after 5Aza-dC treatment: 0.46 fold
[2]; GAGE3, Panc1
  Fold-change after 5Aza-dC treatment: 9.78 fold
[2]; GAGE4, Panc1
  Fold-change after 5Aza-dC treatment: 35.44 fold
[2]; GAGE6, Panc1
  Fold-change after 5Aza-dC treatment: 35.5 fold
[2]; GAGE7, Panc1
  Fold-change after 5Aza-dC treatment: 36.1 fold
[2]; HOXA1, Panc1
  Fold-change after 5Aza-dC treatment: 1.26 fold
[2]; IGF2, Panc1
  Fold-change after 5Aza-dC treatment: 9.41 fold
[2]; IL1R1, Panc1
  Fold-change after 5Aza-dC treatment: 1.37 fold
[2]; ISG20, Panc1
  Fold-change after 5Aza-dC treatment: −0.84 fold
[2]; JPH3, Panc1
  Fold-change after 5Aza-dC treatment: −4.18 fold
[2]; KLK10, Panc1
  Fold-change after 5Aza-dC treatment: −1.05 fold
[2]; LDOC1, Panc1
  Fold-change after 5Aza-dC treatment: 9.19 fold
[2]; LHX1, Panc1
  Fold-change after 5Aza-dC treatment: 1.79 fold
[2]; MAGE1, Panc1
  Fold-change after 5Aza-dC treatment: 7.32 fold
[2]; MATN1, Panc1
  Fold-change after 5Aza-dC treatment: 3.61 fold
[2]; NEFH, Panc1
  Fold-change after 5Aza-dC treatment: 4.59 fold
[2]; NPTX2, Panc1
  Fold-change after 5Aza-dC treatment: 18.94 fold
[2]; PAX6, Panc1
  Fold-change after 5Aza-dC treatment: 4.45 fold
[2]; PDYN, Panc1
  Fold-change after 5Aza-dC treatment: 4.84 fold
[2]; PLAT, Panc1
  Fold-change after 5Aza-dC treatment: 2.13 fold
[2]; PLEK2, Panc1
  Fold-change after 5Aza-dC treatment: 1.08 fold
[2]; Panc1
  transcripts with >5-fold increase, share of the 18462 transcripts analyzed: 0.6%
[2]; Panc1, vs mock-treated
  transcripts with substantial increase (>5-fold) in signal intensities: 116 transcripts
[2]; SARP2, Panc1
  Fold-change after 5Aza-dC treatment: −1.47 fold
[2]; SMARCA1, Panc1
  Fold-change after 5Aza-dC treatment: 1.01 fold
[2]; ST14, Panc1
  Fold-change after 5Aza-dC treatment: 5.1 fold
[2]; TIMP3, Panc1
  Fold-change after 5Aza-dC treatment: 1.1 fold
[2]; TJP2, Panc1
  Fold-change after 5Aza-dC treatment: 1.49 fold
[2]; TNF, Panc1
  Fold-change after 5Aza-dC treatment: 1.18 fold
[2]; UCHL1, Panc1
  Fold-change after 5Aza-dC treatment: 2.37 fold
[2]; WNT7A, Panc1
  Fold-change after 5Aza-dC treatment: 3.57 fold
[2]; XAGE-1, Panc1
  Fold-change after 5Aza-dC treatment: 24.78 fold
[2]; granulocytemacrophage colony-stimulating factor (M11734), Panc1
  Fold-change after 5Aza-dC treatment: 2.17 fold
[2]; interferon, alpha-inducible protein (NM_022873), Panc1
  Fold-change after 5Aza-dC treatment: 1.2 fold
[2]; p53-induced protein (PIGII), Panc1
  Fold-change after 5Aza-dC treatment: 1.04 fold
[2]; reprimo, Panc1
  Fold-change after 5Aza-dC treatment: 1.03 fold
[2]; stratifin (14-3-3 sigma), Panc1
  Fold-change after 5Aza-dC treatment: 1.21 fold
[2]; stromal antigen 3 (STAG5), Panc1
  Fold-change after 5Aza-dC treatment: 6.84 fold
[2]; testin, Panc1
  Fold-change after 5Aza-dC treatment: 1.57 fold
